According to US20230102483A1, “[6R]-MTHF IN 5-FU BASED CHEMOTHERAPY OF LEFT-SIDED COLORECTAL CANCER” (Isofol Medical AB, priority 2021, published 2023):

Experiments:
[1] = cited from earlier work
[2] = tested on: metastatic colorectal cancer tumors (Stadium IV CRC patients); experiment: Clinical Study ISO-CC-005 (Phase I/IIa) safety extension cohorts and Follow-up study: tumour response by CT/MRI per RECIST 1.1; type: in vivo, human
Source text: As used herein, the term ORR shall refer to the Objective Response Rate, ie. the proportion of patients with reduction in tumor burden of a predefined amount. […] (Note: the appearance of one or more new lesions is also considered progression). […] Shortly after, applicant started two additional treatment groups in 2018 to generate more safety and efficacy data, i.e. the safety extension Cohort #18 (Treatment Arm #4) and Cohort #19 (Treatment Arm #6). The aim was to evaluate as many patients as possible from the additional treatment groups after a treatment period of 16 weeks or more. On 30 Sep. 2020, applicant announced response assessment data from the two safety extension cohorts (31 patients) treated for 16 weeks or longer (press release: 55% Overall Response Rate on the safety extension cohorts of the ISO-CC-005 Phase I/IIa study|BioSpace). […] These patients had been treated with the selected dose regimen of 120 mg/m2 arfolitixorin and 5-fluorouracil (5-FU) with either irinotecan or oxaliplatin ([…]). Out of the 31 patients, 17 were treated with an ARFOX regimen. Clinical Study ISO-CC-005 was an exploratory, Phase I/II multiple-centre study to be carried out in Stadium IV CRC patients. The study was designed to show clinical relevance for patients by characterizing the tolerability of four arfolitixorin dose levels (30, 60, 120, and 240 mg/m2) in six different standard clinical settings in the presence of fixed doses of 5-FU alone or in combination with either oxaliplatin, irinotecan, or oxaliplatin and bevacizumab. [table] The study was divided in the Main Study and the Follow-up Study. In the Main Study, patients received study treatment with arfolitixorin during eight weeks. Patients eligible for the Follow-up study could participate until reaching progress, but no longer than 18 months. […] The goal with the Dose-finding part of the Main Study was to establish the arfolitixorin dose level assessed as having the most favourable profile, i.e. the selected phase 2 dose (SP2D). […] Response was measured in short- and long-term assessments. […]

[3] = leucovorin vs levoleucovorin; cited from earlier work

Nc1nc2c(c(=O)[nH]1)N(C=O)[C@H](CNc1ccc(C(=O)N[C@@H](CCC(=O)O)C(=O)O)cc1)CN2 [d-LV]
excretion ([1]; kidneys): slowly excreted by the kidneys

Nc1nc2c(c(=O)[nH]1)N1CN(c3ccc(C(=O)N[C@@H](CCC(=O)O)C(=O)O)cc3)C[C@H]1CN2 [[6R]-5,10-MTHF, [6R]-5,10-methylenetetrahydrofolate]
progression of tumors between 8 and 16 weeks after initiating treatment ([2]; ISO-CC-005, treatment period of at least 8 weeks): No statistically significant progression
best ORR, patients diagnosed with LCRC or RCA ([2]; left-sided or rectal primary tumor (18 patients), 16 weeks and beyond, 120 mg/m2 arfolitixorin): > 60%
best ORR, only LCRC (without the rectal cases) ([2]; left-sided primary tumor (13 patients), 16 weeks and beyond, 120 mg/m2 arfolitixorin): ~70%

Nc1nc2c(c(=O)[nH]1)N(C=O)C(CNc1ccc(C(=O)N[C@@H](CCC(=O)O)C(=O)O)cc1)CN2 (stereo partly shown) [Leucovorin, 5-formyl tetrahydrofolic acid]
pharmacokinetic comparison [3]: pharmacokinetically identical

Nc1nc(=O)c2c([nH]1)NC[C@H](CNc1ccc(C(=O)N[C@@H](CCC(=O)O)C(=O)O)cc1)N2C=O [1-LV]
pharmacokinetic comparison [3]: pharmacokinetically identical
metabolic conversion ([1]; In vitro): rapidly converted to the biologically available methyl-tetrahydrofolate form
